# According to patent US9676760B2, “Fused heterocyclic compounds as ion channel modulators” (Gilead Sciences, Inc., priority 2011, dated 2017):
# Legend:
# [1] = molecular target: cardiac L-type Ca2+ channel (hCav1.2) (Homo sapiens, UniProt Q13936); assay: L-type Ca2+ channel assay - ChanTest (PatchXpress, CHO cells); format: cell-based
# From the text: Selected compounds were screened for block of the cardiac L-type Ca^2+ channel (hCav1.2, encoded by the human CACNA1C gene and coexpressed with the beta 2 subunit, encoded by the human CACNB2 gene and alpha2delta1, encoded by the CACNA2D1 gene). The Ca^2+ channel is heterologously expressed in a CHO (Chinese Hamster Ovary) cell line. Cells are maintained following standard tissue culture procedures and stable channel expression is maintained with appropriate selection antibiotics in the culture medium. Cells are harvested for testing on the PatchXpress automated patch clamp (Model 7000A, Molecular Devices, Sunnyvale, Calif.) by washing twice with Hank's Balanced Salt Solution, treating the cells with trypsin and re-suspending cells in culture medium (4-6×10^6 cells in 20 mL). Cells in suspension are allowed to recover for 10 minutes in a tissue culture incubator set at 37° C. in a humidified 95% air, 5% CO2 atmosphere.
# The following solutions are used for electrophysiological recordings. The external solution contains (mM): 137 NaCl, 4 KCl, 1.8 CaCl2, 1 MgCl2, 10 Glucose, 10 HEPES (pH 7.4 with NaOH). The internal solution contains (mM): 130 Cs Aspartate, 5 MgCl2, 10 EGTA, 4 ATP, 0.5 GTP, 10 HEPES, (pH adjusted to 7.2 with N-methyl-D-glucamine).
# Vehicle is applied to naive cells (n≧2, where n=the number cells), for a 5-10 minute exposure interval. Each solution exchange is performed in quadruplicate. At the end of each experiment, a saturating concentration of nifedipine (10 μM) is added to block hCav1.2 current. Leak current is digitally subtracted from the total membrane current record.
# Test compound stock solutions are prepared by addition of dimethyl sulfoxide (DMSO) and stored frozen. Each test compound DMSO stock is sonicated (Model 2510/5510, Branson Ultrasonics, Danbury, Conn.), at ambient room temperature for at least 20 minutes to facilitate dissolution. Test compound concentrations are prepared fresh daily by diluting stock solutions into the standard extracellular physiological saline solution (see above). The maximum percent of DMSO added with compound is 0.1%. All test compound and control solutions are placed in a glass-lined 96-well compound plate before loading on PatchXpress.
# Two concentrations (1, 10 μM) of each test compound are applied at five (5) minute intervals via disposable polyethylene micropipette tips to naïve cells (n≧2, where n=the number cells/concentration). Each test compound concentration is added to the cell in quadruplicate. […]
# Onset and steady state block of hCav1.2 (α1C/β2/α2δ[…] channels is measured using a stimulus voltage pattern consisting of a depolarizing test pulse (duration, 200 ms; amplitude, 10 mV) at 10 s intervals from a −80 mV holding potential. Peak current is measured during a step to 10 mV.
# [2] = tested on: Female New Zealand rabbits; assay: Ischemia-induced ST segment elevation in anesthetized rabbits; format: in vivo, rabbit
# Protocol: This study was undertaken to determine the anti-ischemic effects of compounds of the present disclosure in an in vivo rabbit model.
# Female New Zealand rabbits (3.0-4.0 kg) were purchased from Western Oregon Rabbitry. Animals were housed on a 12-h light and dark cycle and received standard laboratory chow and water. All experiments were performed in accordance with the Guide for the Care and Use of Laboratory Animals published by The National Research Council and with the experimental protocol approved by the Institutional Animal Care Committee of Gilead Sciences, Inc.
# Rabbits were anesthetized with ketamine (35 mg/kg) and xylazine (5 mg/kg) intramuscular injection (im). A tracheotomy was performed and the trachea was intubated with an endotracheal tube. The animal was ventilated with room air supplemented with oxygen using a pressure control animal ventilator (Kent Scientific Corp., Torrington, Conn.) at a respiratory rate of 40 strokes/min and peak inspiration pressure of 10 mmH2O, which was adjusted to keep blood gases and pH within the physiological range (iSTAT clinic analyzer, Heska Corp.; Waukesha, Wis.). The left femoral artery was cannulated for the measurement of blood pressure (BP). Blood samples were also withdrawn from femoral artery. The right external jugular vein was cannulated for drug/vehicle administration. Needle electrodes were inserted subcutaneously into the limbs for recording of the surface electrocardiogram (ECG). The heart was exposed via an incision in the 4th intercostal space (4th and/or 5th ribs were cut for a clear surgical vision). The chest was opened and a pericardial cradle was formed using 4 retractors. A coronary artery occluder, comprised of a snare made of 5 cm PE-10 tubing with a 6-0 Prolene polypropylene suture in it, was placed loosely around the left anterior descending artery (LAD) at its origin. Two unipolar electrodes, made with teflon coated silver wire attached to a small patch of filter paper, were attached on the surface of the ischemic and normal regions of the left ventricle to record epicardial electrocardiogram. Reference electrodes were placed in the open incision of the neck. The body temperature of the animal was monitored via a rectal thermometer and maintained at 37-40° C. by adjusting the surface temperature of the surgical table. Regional ischemia (15 min) was induced by ligating the LAD followed by 15 min of reperfusion caused by releasing the ligation. The heart was excised at the end of the experiment and the LAD was re-ligated. The ischemic area was visualized by perfusing the heart with 1% Evans blue in saline and calculated as a percentage of total ventricular weight. Rabbits with ischemic area less than 10% or larger than 25% were excluded from the analysis. Animals were randomly assigned to vehicle and test compound groups. Test compounds was dissolved in 5% NMP, 30% PG, 45% PEG 400 and 20% de-ionized water (dH2O). Test compound was given as an iv bolus at 0.1, 0.2 and 0.4 mg/kg. After 30 min of dosing, the heart was subjected to 15 min of ischemia followed by 15 min of reperfusion.
# Sequence of cardiac L-type Ca2+ channel (hCav1.2) (Q13936 whole entry): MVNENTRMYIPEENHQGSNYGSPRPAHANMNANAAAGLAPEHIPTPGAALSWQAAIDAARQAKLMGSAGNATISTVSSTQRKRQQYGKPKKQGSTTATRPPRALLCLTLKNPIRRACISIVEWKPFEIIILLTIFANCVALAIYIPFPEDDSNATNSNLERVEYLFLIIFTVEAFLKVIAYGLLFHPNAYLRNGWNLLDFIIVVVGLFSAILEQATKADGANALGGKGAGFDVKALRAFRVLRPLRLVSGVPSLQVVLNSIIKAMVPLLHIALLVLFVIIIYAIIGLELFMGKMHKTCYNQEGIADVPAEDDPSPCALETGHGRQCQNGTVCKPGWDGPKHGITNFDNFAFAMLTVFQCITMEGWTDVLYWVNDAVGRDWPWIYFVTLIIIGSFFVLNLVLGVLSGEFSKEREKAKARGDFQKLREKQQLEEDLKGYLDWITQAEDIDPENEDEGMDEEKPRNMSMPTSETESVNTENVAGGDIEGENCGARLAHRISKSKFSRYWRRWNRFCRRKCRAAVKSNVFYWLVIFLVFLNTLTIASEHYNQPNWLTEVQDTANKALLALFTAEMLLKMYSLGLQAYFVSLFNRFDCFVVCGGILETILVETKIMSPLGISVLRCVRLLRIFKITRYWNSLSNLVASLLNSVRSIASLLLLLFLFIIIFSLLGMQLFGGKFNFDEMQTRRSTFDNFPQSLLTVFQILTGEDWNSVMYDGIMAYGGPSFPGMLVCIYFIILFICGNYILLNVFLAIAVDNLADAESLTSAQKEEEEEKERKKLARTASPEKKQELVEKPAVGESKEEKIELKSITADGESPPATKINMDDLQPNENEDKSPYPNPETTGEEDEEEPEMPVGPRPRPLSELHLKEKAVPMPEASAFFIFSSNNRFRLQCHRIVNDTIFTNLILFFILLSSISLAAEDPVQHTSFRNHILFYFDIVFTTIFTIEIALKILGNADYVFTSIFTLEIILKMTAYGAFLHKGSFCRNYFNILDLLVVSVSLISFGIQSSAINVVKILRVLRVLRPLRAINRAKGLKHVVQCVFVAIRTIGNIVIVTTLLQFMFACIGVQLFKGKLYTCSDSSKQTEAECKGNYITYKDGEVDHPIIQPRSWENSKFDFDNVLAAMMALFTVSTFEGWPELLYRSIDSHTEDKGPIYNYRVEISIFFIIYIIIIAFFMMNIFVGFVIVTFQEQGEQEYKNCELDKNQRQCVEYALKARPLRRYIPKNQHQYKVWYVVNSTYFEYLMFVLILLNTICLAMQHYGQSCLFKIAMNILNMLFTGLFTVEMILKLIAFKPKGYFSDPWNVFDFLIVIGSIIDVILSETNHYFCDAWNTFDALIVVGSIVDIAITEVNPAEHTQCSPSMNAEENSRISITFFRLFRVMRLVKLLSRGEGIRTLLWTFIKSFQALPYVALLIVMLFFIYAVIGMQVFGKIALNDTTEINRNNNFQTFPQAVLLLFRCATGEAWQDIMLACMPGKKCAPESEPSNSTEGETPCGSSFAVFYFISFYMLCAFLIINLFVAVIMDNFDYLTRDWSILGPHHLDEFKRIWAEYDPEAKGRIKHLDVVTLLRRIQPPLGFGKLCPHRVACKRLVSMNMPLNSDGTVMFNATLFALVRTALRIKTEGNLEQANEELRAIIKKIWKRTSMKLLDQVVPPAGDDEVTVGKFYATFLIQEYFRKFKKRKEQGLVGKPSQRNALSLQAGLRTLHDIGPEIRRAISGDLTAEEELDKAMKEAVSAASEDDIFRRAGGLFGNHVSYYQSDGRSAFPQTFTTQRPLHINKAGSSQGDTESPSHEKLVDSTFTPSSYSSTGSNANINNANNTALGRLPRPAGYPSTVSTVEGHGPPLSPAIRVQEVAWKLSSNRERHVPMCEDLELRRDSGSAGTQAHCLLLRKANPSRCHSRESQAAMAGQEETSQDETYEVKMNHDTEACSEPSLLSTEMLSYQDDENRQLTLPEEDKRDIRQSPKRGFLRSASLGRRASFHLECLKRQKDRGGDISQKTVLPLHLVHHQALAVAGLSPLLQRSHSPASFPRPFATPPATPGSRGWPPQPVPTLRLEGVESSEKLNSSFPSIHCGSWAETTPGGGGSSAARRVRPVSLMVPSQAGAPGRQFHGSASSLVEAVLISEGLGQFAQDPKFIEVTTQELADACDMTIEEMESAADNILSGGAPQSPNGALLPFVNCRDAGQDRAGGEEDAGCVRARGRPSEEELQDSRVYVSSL
# Sequence of cardiac L-type Ca2+ channel (hCav1.2) (Q08289 whole entry partner): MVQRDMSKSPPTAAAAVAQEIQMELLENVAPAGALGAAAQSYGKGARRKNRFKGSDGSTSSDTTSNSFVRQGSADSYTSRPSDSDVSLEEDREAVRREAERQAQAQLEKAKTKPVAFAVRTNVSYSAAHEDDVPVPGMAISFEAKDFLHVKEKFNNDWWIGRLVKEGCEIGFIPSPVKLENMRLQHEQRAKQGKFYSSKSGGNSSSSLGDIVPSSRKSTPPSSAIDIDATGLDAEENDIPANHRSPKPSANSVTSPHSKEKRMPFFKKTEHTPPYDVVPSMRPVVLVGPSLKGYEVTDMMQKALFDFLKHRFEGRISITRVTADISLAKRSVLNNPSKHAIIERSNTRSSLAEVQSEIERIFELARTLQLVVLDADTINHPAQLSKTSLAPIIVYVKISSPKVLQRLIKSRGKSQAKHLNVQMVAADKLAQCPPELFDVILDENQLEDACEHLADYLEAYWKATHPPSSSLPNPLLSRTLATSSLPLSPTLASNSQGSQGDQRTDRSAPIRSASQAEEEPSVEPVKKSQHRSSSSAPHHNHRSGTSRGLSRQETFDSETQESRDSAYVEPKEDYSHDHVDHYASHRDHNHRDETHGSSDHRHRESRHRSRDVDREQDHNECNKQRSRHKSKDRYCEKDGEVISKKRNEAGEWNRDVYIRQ
# Sequence of cardiac L-type Ca2+ channel (hCav1.2) (P54289 25-956 partner limits assumed): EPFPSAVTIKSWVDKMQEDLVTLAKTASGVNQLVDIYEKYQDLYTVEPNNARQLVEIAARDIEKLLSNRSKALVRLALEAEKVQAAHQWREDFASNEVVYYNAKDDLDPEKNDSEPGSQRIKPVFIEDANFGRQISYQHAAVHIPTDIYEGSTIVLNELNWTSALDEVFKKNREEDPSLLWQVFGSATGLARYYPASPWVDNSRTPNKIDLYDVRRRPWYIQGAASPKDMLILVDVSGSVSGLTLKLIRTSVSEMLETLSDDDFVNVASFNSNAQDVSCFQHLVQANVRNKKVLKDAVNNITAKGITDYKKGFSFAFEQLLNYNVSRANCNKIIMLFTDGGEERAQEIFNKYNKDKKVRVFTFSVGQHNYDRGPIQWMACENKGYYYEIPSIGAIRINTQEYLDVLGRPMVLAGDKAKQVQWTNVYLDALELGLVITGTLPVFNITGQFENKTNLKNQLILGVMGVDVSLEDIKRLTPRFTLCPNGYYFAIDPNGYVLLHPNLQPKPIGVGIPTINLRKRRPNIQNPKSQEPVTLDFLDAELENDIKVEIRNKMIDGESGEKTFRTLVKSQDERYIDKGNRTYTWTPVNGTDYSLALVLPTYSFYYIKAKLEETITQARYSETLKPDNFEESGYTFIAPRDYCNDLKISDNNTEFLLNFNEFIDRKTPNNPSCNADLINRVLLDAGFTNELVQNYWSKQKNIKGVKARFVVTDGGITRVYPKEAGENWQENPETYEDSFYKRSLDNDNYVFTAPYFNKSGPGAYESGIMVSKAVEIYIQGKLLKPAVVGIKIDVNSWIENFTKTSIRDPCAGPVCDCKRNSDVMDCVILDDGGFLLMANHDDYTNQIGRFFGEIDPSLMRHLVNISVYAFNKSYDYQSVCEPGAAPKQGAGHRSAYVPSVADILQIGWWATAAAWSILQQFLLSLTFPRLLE
# Sequence of cardiac L-type Ca2+ channel (hCav1.2) (P54289 957-1103 partner limits assumed): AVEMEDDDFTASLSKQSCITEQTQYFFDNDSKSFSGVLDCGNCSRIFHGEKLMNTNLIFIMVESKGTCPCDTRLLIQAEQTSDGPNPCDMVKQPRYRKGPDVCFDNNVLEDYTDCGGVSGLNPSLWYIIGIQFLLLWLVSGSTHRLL
compound,measurement,setting,value
"O=C1c2cc(-c3ccc(OC(F)(F)F)cc3)ccc2OCCN1Cc1ncccn1 [II-73, 4-(pyrimidin-2-ylmethyl)-7-(4-(trifluoromethoxy)phenyl)-3,4-dihydrobenzo[f][1,4]oxazepin-5(2H)-one]",blocked the hCav1.2 late current,[1]; 1 μM concentration,14%
same,blocked the hCav1.2 peak current,[1]; 1 μM concentration,32%
same,blocked the hCav1.2 late current,[1]; 10 μM concentration,47%
same,blocked the hCav1.2 peak current,[1]; 10 μM concentration,79%
same,area under curve (AUC) for the ST segment height reduced (vs. control),"[2]; 0.5 μM plasma concentration, iv bolus, 15 min ischemia",93%
same,"effect on blood pressure (BP), heart rate (HR) and ECG intervals prior to the ischemia",[2]; at the plasma concentration levels studied,no significant effect
same,ischemia-induced ST elevation,[2]; iv bolus 30 min before 15 min ischemia,dose-dependently prevented
